Results published in the supplement of paper PMC11208160.

assay: recombinant UMI read abundance after kanamycin selection (control-corrected) (log10(CPM+1)); higher = more efficient recombination; extreme values may be limits of the assay; sequences stand for … in AGTGCAGAGAAAATCGGCCAGTTTTCTCTGCCTGCAGTCCGCATGCCGTGGGACCCCTTGGGTTCTAACCTGTTGCCTAGATTTATGCAGCGGACTGCCTTTCTCCCAAAGTGATAAACCGG…AGGTTGGTTTCACT; site = the 11-nt donor
Method in brief: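 The measure is log10(CPM+1) for recombinant UMIs. These were PCR-amplified across the donor–target junction and sequenced after Escherichia coli carrying a donor and donor-binding-loop pair library and a target plasmid with T7-inducible IS621 bridge recombinase was plated on IPTG (0.07 mM) plus kanamycin or unselected. CPM were averaged over two replicates and scaled by control-derived factors.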
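Further: IS621 bridge recombinase in Escherichia coli cells against a fixed T5 target plasmid.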

In order of falling “recombinant UMI read abundance (log10)” value:
1. ATAGCGACATGGACCGGTTTTCCCGGTAATCCGTATTTGCG (site ATAGCGACTCG)  2.61
2. ATAGCCTCATGGACCGGTTTTCCCGGTAATCCGTATTTGCG (site ATAGCCTCTCG)  2.52
3. ATAAGTCCATGGACCGGTTTTCCCGGTAATCCGTATTTGAC (site ATAAGTCCTGT)  2.13
4. ATAAGGCCATGGACCGGTTTTCCCGGTAATCCGTATTTGAC (site ATAAGGTCTGT)  1.87
5. ATAGCTGCATGGACCGGTTTTCCCGGTAATCCGTATTTGTG (site ATAGCTGCTCA)  1.35
6. ATAAGGCCATGGACCGGTTTTCCCGGTAATCCGTATTTGCC (site ATAAGGCCTGG)  1.07
7. ATAAGGCCATGGACCGGTTTTCCCGGTAATCCGTATTTGAC (site ATAAGGACTGT)  0.956
8. ATAAGTCCATGGACCGGTTTTCCCGGTAATCCGTATTTGAC (site ATAAGGCCTGT)  0.787
9. ATAGCTGCATGGACCGGTTTTCCCGGTAATCCGTATTTGTG (site CTAGCTGCTCA)  0.647
10. ATAAGTCCATGGACCGGTTTTCCCGGTAATCCGTATTTGAC (site ATAAGCCCTGT)  0.569
11. ATAGAGCCATGGACCGGTTTTCCCGGTAATCCGTATTTGAA (site ATAGAGCCTTT)  0.525
12. ATAATCGCATGGACCGGTTTTCCCGGTAATCCGTATTTGGG (site ATAATCGCTCC)  0.324
13. ATAAGGCCATGGACCGGTTTTCCCGGTAATCCGTATTTGAC (site ATAAGGCCTAT)  0.214
14. ATAAGGCCATGGACCGGTTTTCCCGGTAATCCGTATTTGAC (site ATAAGGCCTGC)  0.147
15. ATAAGGCCATGGACCGGTTTTCCCGGTAATCCGTATTTGAC (site ATAAGGCCTTT)  0.131
16. ATAAGGCCATGGACCGGTTTTCCCGGTAATCCGTATTTGAC (site ATAAGGCCTCT)  0.0671
17. ATAAGGCCATGGACCGGTTTTCCCGGTAATCCGTATTTGAC (site ATAACGCCTGT)  0.0185
18. ATAAGGCCATGGACCGGTTTTCCCGGTAATCCGTATTTGAC (site ATATGGCCTGT)  0.00516
19. ATAAGGCCATGGACCGGTTTTCCCGGTAATCCGTATTTGAC (site ATAAGACCTGT)  0
20. ATAAGGCCATGGACCGGTTTTCCCGGTAATCCGTATTTGAC (site ATAAGCCCTGT)  0
21. ATAAGGCCATGGACCGGTTTTCCCGGTAATCCGTATTTGAC (site ATAAGGCCTGA)  0
22. ATAAGGCCATGGACCGGTTTTCCCGGTAATCCGTATTTGAC (site ATAAGGCCTGG)  0
23. ATAAGGCCATGGACCGGTTTTCCCGGTAATCCGTATTTGAC (site ATAAGGCCTGT)  0
24. ATAAGGCCATGGACCGGTTTTCCCGGTAATCCGTATTTGAC (site ATAAGGGCTGT)  0
25. ATAAGGCCATGGACCGGTTTTCCCGGTAATCCGTATTTGAC (site ATAAGTCCTGT)  0
26. ATAAGGCCATGGACCGGTTTTCCCGGTAATCCGTATTTGAC (site ATAATGCCTGT)  0
27. ATAAGGCCATGGACCGGTTTTCCCGGTAATCCGTATTTGAC (site ATACGGCCTGT)  0
28. ATAAGGCCATGGACCGGTTTTCCCGGTAATCCGTATTTGAC (site ATAGGGCCTGT)  0
29. ATAAGGCCATGGACCGGTTTTCCCGGTAATCCGTATTTGAC (site ATCAGGCCTGT)  0
30. ATAAGGCCATGGACCGGTTTTCCCGGTAATCCGTATTTGAC (site ATGAGGCCTGT)  0
31. ATAAGGCCATGGACCGGTTTTCCCGGTAATCCGTATTTGAC (site ATTAGGCCTGT)  0
32. ATAAGGCCATGGACCGGTTTTCCCGGTAATCCGTATTTGAC (site CTAAGGCCTGT)  0
33. ATAAGGCCATGGACCGGTTTTCCCGGTAATCCGTATTTGAC (site GTAAGGCCTGT)  0
34. ATAAGGCCATGGACCGGTTTTCCCGGTAATCCGTATTTGAC (site TTAAGGCCTGT)  0
35. ATAAGGCCATGGACCGGTTTTCCCGGTAATCCGTATTTGCC (site ATAAGGCCTGA)  0
36. ATAAGGCCATGGACCGGTTTTCCCGGTAATCCGTATTTGCC (site ATAAGGCCTGC)  0
37. ATAAGGCCATGGACCGGTTTTCCCGGTAATCCGTATTTGCC (site ATAAGGCCTGT)  0
38. ATAAGTCCATGGACCGGTTTTCCCGGTAATCCGTATTTGAC (site ATAAGACCTGT)  0
